ChEMBL document CHEMBL1156164, “Synthesis of 26-hydroxy-22-oxocholestanic frameworks from diosgenin and hecogenin and their in vitro antiproliferative and apoptotic activity on human cervical cancer CaSki cells” (Bioorg Med Chem, 2010)
Active and inactive are the calls of the source. No cut-off for these calls is given here.

Tests used:
[1] = tested on: Ca-Ski; assay: Antiproliferative activity against human CaSki cells after 24 hrs using crystal violet staining by ELISA; type: functional, cell-based
[2] = tested on: Ca-Ski; assay: Effect on human CaSki cell morphology assessed as formation of large cells at IC50 after 24 hrs by microscopy; type: functional, cell-based
[3] = tested on: Ca-Ski; assay: Effect on human CaSki cell morphology assessed as formation of non-reflective small inclusion bodies at IC50 after 24 hrs by microscopy; type: functional, cell-based
[4] = tested on: Ca-Ski; assay: Induction of necrosis of human CaSki cells assessed as LDH accumulation in culture supernatant at IC50 after 24 hrs by INT assay; type: functional
[5] = Induction of necrosis of PHA-activated human lymphocytes assessed as LDH accumulation in culture supernatant at IC50 after 72 hrs by INT assay; type: cell-based; conditions: lymphocyte
[6] = tested on: Ca-Ski; assay: Cell cycle arrest in human CaSki cells assessed as DNA accumulation at G1 phase at IC50 after 24 hrs using propidium iodide staining by flow cytometry; type: functional, cell-based
[7] = tested on: Ca-Ski; assay: Cell cycle arrest in human CaSki cells assessed as DNA accumulation at S phase at IC50 after 24 hrs using propidium iodide staining by flow cytometry; type: functional, cell-based
[8] = tested on: Ca-Ski; assay: Cell cycle arrest in human CaSki cells assessed as DNA accumulation at G2/M phase at IC50 after 24 hrs using propidium iodide staining by flow cytometry; type: functional, cell-based
[9] = tested on: Ca-Ski; assay: Cell cycle arrest in human CaSki cells assessed as DNA accumulation at sub G1 phase at IC50 after 24 hrs using propidium iodide staining by flow cytometry; type: functional, cell-based
[10] = tested on: Ca-Ski; assay: Induction of apoptosis in human CaSki cells assessed as appearance of apoptotic bodies at IC50 after 24 hrs by DAPI staining; type: functional, cell-based
[11] = tested on: Ca-Ski; assay: Induction of apoptosis in human CaSki cells assessed as increase in active caspase-3 expression at IC50 after 24 hrs by immunocytochemistry; type: functional, cell-based
[12] = tested on: Ca-Ski; assay: Induction of apoptosis in human CaSki cells assessed as fragmentation of genomic DNA at IC50 after 24 hrs by TUNEL assay; type: functional, cell-based
[13] = Cytotoxicity against human fibroblast cells at IC50 after 24 hrs by crystal violet staining; type: cell-based
[14] = tested on: PBMC; assay: Effect on enriched human PBMC proliferation assessed as proliferating cells at IC50 after 72 hrs using CSFE labeling by flow cytometry; type: functional
[15] = tested on: PBMC; assay: Induction of enriched human PBMC proliferation assessed as non-proliferating cells at IC50 after 72 hrs using CSFE labeling by flow cytometry; type: functional
[16] = tested on: Ca-Ski; assay: Effect on human CaSki cell morphology assessed as formation of small spherical cells at IC50 after 24 hrs by microscopy; type: functional, cell-based
[17] = tested on: Ca-Ski; assay: Induction of apoptosis in human CaSki cells assessed as chromatin condensation at IC50 after 24 hrs by DAPI staining; type: functional, cell-based

SMILES	Activity [1]	IC50 [1] [µM]	Activity [2]	Activity [3]	Activity [4]	Activity [5]	Activity [6]	Activity [7]	Activity [8]	Activity [9]	Activity [10]	Activity [11]	Activity [12]	Activity [13]	Activity [14] [%]	Activity [15] [%]	Activity [16]	Activity [17]
CC(=O)O[C@H]1CC[C@@]2(C)[C@@H](CC[C@@H]3[C@@H]2CC(=O)[C@]2(C)[C@@H]([C@H](C)C(=O)CC[C@@H](C)CO)[C@@H](OC(C)=O)C[C@@H]32)C1	Dose-dependent effect	188	Active	Active	28%	Not Active	inactive	Active	inactive	Active	Active	Active	Active	18%	63.68	36.34	–	–
CC(=O)O[C@H]1CC[C@@]2(C)C(=CC[C@H]3[C@@H]4C[C@H](OC(C)=O)[C@H]([C@H](C)C(=O)CC[C@@H](C)CO)[C@@]4(C)CC[C@@H]32)C1	Dose-dependent effect	47.1	–	–	inactive	Not Active	Active	Active	Active	Active	–	Active	inactive	Not Active	76.15	23.85	Active	Active
